Measurements: the supplement of paper PMC10307832

What was measured:
Experiment in all cases: relative viability (nuclei count vs DMSO), 5 days (fraction); higher = more cells survive
[1] = compound: NC(=O)c1ccc(N(C(N)=O)c2c(F)cccc2F)nc1-c1ccc(F)cc1F [VX-702] + Nc1nc2[nH]cc(CCc3ccc(C(=O)N[C@@H](CCC(=O)O)C(=O)O)cc3)c2c(=O)[nH]1 [Pemetrexed] (partner 0.2 µM)
Method in brief: (§1)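 Lung cancer cell lines were pin-tool dosed in 1536-well plates on the day after seeding, with either a lone drug or a fixed anchor-drug dose plus five library-drug doses (not always all listed) in √10 steps. Nuclei were counted on 4× images after 5 days. Relative viability is the ratio of treated-well to vehicle-well nuclei counts, with each value a median of duplicate plates.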

[2] = compound: NC(=O)c1ccc(N(C(N)=O)c2c(F)cccc2F)nc1-c1ccc(F)cc1F [VX-702] + CC(C)C[C@H](NC(=O)[C@H](Cc1ccccc1)NC(=O)c1cnccn1)B(O)O [Bortezomib] (partner 0.002 µM)
Method in brief: as §1

[3] = compound: NC(=O)c1ccc(N(C(N)=O)c2c(F)cccc2F)nc1-c1ccc(F)cc1F [VX-702] + Cc1cc(Nc2cc(N3CCN(C)CC3)nc(Sc3ccc(NC(=O)C4CC4)cc3)n2)n[nH]1 [Tozasertib] (partner 0.1 µM)
Method in brief: as §1

[4] = compound: CC(C)(C)c1nc(-c2cccc(NS(=O)(=O)c3c(F)cccc3F)c2F)c(-c2ccnc(N)n2)s1 [Dabrafenib] + Cc1nc(Nc2ncc(C(=O)Nc3c(C)cccc3Cl)s2)cc(N2CCN(CCO)CC2)n1 [Dasatinib] (partner 0.075 µM)
Method in brief: as §1

Cell Line	relative viability ([1]; first compound 0.02 µM)	relative viability ([1]; first compound 0.2 µM)	relative viability ([1]; first compound 0.6325 µM)	relative viability ([1]; first compound 2 µM)	relative viability ([2]; first compound 0.02 µM)	relative viability ([2]; first compound 0.2 µM)	relative viability ([2]; first compound 0.6325 µM)	relative viability ([2]; first compound 2 µM)	relative viability ([3]; first compound 0.02 µM)	relative viability ([3]; first compound 0.2 µM)	relative viability ([3]; first compound 0.6325 µM)	relative viability ([3]; first compound 2 µM)	relative viability ([4]; first compound 0.003 µM)	relative viability ([4]; first compound 0.009487 µM)	relative viability ([4]; first compound 0.03 µM)	relative viability ([4]; first compound 0.09487 µM)	relative viability ([4]; first compound 0.3 µM)
NCI-H460	0.0627	0.0509	0.055	0.057	1.14	1.15	1.22	1.17	0.665	0.54	0.614	0.159	0.43	0.529	0.615	0.509	0.571
NCI-H1650	0.325	0.34	0.384	0.403	0.195	0.207	0.189	0.185	0.353	0.305	0.353	0.494	0.263	0.376	0.425	0.327	0.378
NCI-H1993	0.646	0.529	0.523	0.563	0.841	1.01	0.992	1.01	0.525	0.591	0.623	0.806	0.627	0.665	0.607	0.845	0.856
HCC-78	0.874	0.883	0.901	0.889	0.314	0.521	0.472	0.506	0.42	0.456	0.325	0.465	–	0.492	0.483	0.251	0.408
LXF-289	0.935	0.894	0.9	0.947	1.03	1.03	0.998	1.02	0.208	0.188	0.214	0.175	0.175	0.2	0.211	0.195	0.192
201T	0.36	0.331	0.339	0.34	1.13	1.07	1.17	1.17	0.959	0.921	0.937	0.914	0.606	0.541	0.57	0.497	0.54
NCI-H2023	0.231	0.264	0.199	0.198	0.862	0.946	1.06	0.947	0.264	0.308	0.296	0.38	0.559	0.589	0.586	0.516	0.673
NCI-H1437	0.345	0.261	0.318	0.324	0.592	0.631	0.587	0.595	0.412	0.432	0.405	0.45	0.281	0.372	0.256	0.39	0.482
HCC-827	0.244	0.252	0.287	0.18	0.966	1.03	0.997	0.541	0.427	0.396	0.387	0.393	0.44	0.384	0.287	–	0.382
HARA	0.235	–	0.277	0.256	0.605	1.05	1.17	1.34	0.113	0.0909	0.118	0.117	0.242	0.346	–	0.294	0.264
NCI-H838	0.234	0.24	0.254	0.236	0.857	0.94	0.796	0.937	0.233	0.285	0.303	0.291	0.254	0.287	–	0.364	0.279
LCLC-103H	0.503	0.445	0.469	0.469	1.17	0.949	1.05	1.11	0.405	0.355	0.456	0.541	0.495	0.526	0.513	0.447	0.379
NCI-H2085	0.82	0.957	0.949	0.852	1.08	1.06	1.03	1	0.847	0.762	0.864	0.789	0.246	0.28	0.216	0.288	0.188
COR-L23	0.203	0.183	0.21	0.23	1.08	1.02	1.15	1.21	0.202	0.231	0.171	0.244	0.448	0.441	0.555	0.455	0.425
NCI-H322M	0.61	0.611	0.633	0.578	1.22	1.25	1.31	1.18	0.486	0.506	0.496	0.508	–	0.229	0.233	0.279	0.236
NCI-H1915	0.519	0.476	0.446	0.455	1.06	0.893	0.991	1.01	0.411	0.43	0.42	0.46	0.316	0.318	0.386	0.296	0.345
EPLC-272H	0.354	0.402	0.318	0.403	0.897	0.836	1.05	0.956	0.345	0.235	0.418	0.289	0.281	0.443	0.399	0.344	0.33
NCI-H1734	0.386	0.377	0.413	0.409	0.865	0.844	0.847	0.738	0.277	0.248	0.236	0.222	–	0.478	0.454	0.313	0.387
NCI-H2405	1.11	1.04	1.04	1.2	1.04	0.604	0.702	0.977	0.816	0.724	0.717	0.726	–	0.221	–	0.181	0.172

Cell Line	relative viability ([1]; first compound 0.02 µM)	relative viability ([1]; first compound 0.2 µM)	relative viability ([1]; first compound 0.6325 µM)	relative viability ([1]; first compound 2 µM)	relative viability ([2]; first compound 0.02 µM)	relative viability ([2]; first compound 0.2 µM)	relative viability ([2]; first compound 0.6325 µM)	relative viability ([2]; first compound 2 µM)	relative viability ([3]; first compound 0.02 µM)	relative viability ([3]; first compound 0.2 µM)	relative viability ([3]; first compound 0.6325 µM)	relative viability ([3]; first compound 2 µM)	relative viability ([4]; first compound 0.003 µM)	relative viability ([4]; first compound 0.009487 µM)	relative viability ([4]; first compound 0.03 µM)	relative viability ([4]; first compound 0.09487 µM)	relative viability ([4]; first compound 0.3 µM)
NCI-H1666	0.869	0.869	0.89	0.808	0.906	0.672	0.989	0.606	0.593	–	0.586	0.583	0.84	0.775	0.798	0.809	0.822
CAL-12T	0.982	1.22	1.14	1.29	1.02	0.928	0.885	1.06	0.369	0.31	0.273	0.398	0.493	0.434	0.476	0.325	0.42
NCI-H2347	0.425	0.43	0.438	0.415	0.995	0.83	1.02	1.13	0.592	–	0.505	0.521	–	0.309	0.308	0.448	0.38
A-427	1.06	0.993	0.986	1.06	0.984	0.947	0.988	1.05	0.241	0.169	0.232	0.221	–	0.77	0.594	0.51	0.627
NCI-H520	0.713	0.486	0.636	0.765	0.4	0.663	0.479	0.677	0.443	0.385	0.434	0.55	0.223	0.24	0.199	0.179	0.177
NCI-H647	0.174	0.172	0.133	0.144	1.14	0.84	1.25	1.41	0.323	0.248	0.208	0.436	0.0445	0.161	0.305	0.188	0.159
LU99A	0.173	0.164	0.184	0.16	1.09	1.05	1.14	0.934	0.315	0.25	0.257	0.263	0.662	0.569	0.423	0.464	0.41
BEN	0.825	0.689	0.623	0.86	0.823	0.545	0.658	0.922	0.532	0.432	0.481	0.55	–	0.334	–	0.356	0.327
EKVX	0.463	0.345	0.38	0.431	1.01	0.738	1.05	1.42	0.381	0.36	0.379	0.423	–	0.585	0.522	0.533	0.628
SK-LU-1	1.01	0.965	0.936	1.04	1.15	–	1.19	1.8	0.337	0.315	0.311	0.476	–	0.185	0.193	0.173	0.188
COR-L 105	1.06	1	1.14	1.25	0.957	0.888	0.907	0.54	0.225	0.338	0.353	0.355	0.316	0.39	0.366	0.373	0.368
SW 1573	0.759	0.914	0.775	0.741	1.02	0.902	0.871	1	0.145	0.168	0.173	0.243	0.263	0.557	0.457	0.279	0.379
NCI-H2087	0.703	0.657	0.681	0.656	0.824	0.889	0.818	0.914	0.277	0.236	0.284	0.281	–	0.894	0.798	0.519	0.657
NCI-H1975	0.312	0.296	0.301	0.287	0.367	0.281	0.353	0.391	0.792	0.724	0.713	0.934	0.372	0.345	0.363	0.344	0.392
HCC-15	0.223	0.22	0.227	0.248	1.07	0.929	1.09	1.05	0.402	0.322	0.408	0.53	0.597	0.665	0.775	0.651	0.754
HOP-62	0.365	0.311	0.284	0.309	0.67	0.566	0.696	0.653	0.474	0.37	0.41	0.373	0.509	0.738	0.588	0.603	0.539
NCI-H2228	0.338	0.336	0.37	0.342	1.02	0.917	1.31	1.04	0.314	0.319	0.199	0.23	–	0.482	0.635	0.506	0.506
EMC-BAC-2	0.472	0.436	0.407	0.416	1.11	1.04	1.04	1.09	0.349	0.278	0.272	0.304	0.327	0.319	0.317	0.246	0.295
NCI-H1355	1.05	1.01	1.02	1.09	1.26	1.22	1.27	1.26	0.497	0.514	0.593	0.631	–	0.692	0.749	0.651	0.703
